From a melting point compilation (Tetko et al.; mined from patent text by program, amines drawn as free bases though some values may be those of a salt)

Row | SMILES | melting point [°C]
1 | Cc1ncnc(-c2cc(O)c(Cl)cc2F)c1C | 176 to 178
2 | COc1ccccc1N1CCN(CC(O)COc2ccc(OCc3ccccc3)c(C(C)(C)C)c2)CC1 (stereo not drawn) | 133 to 134
3 | Nc1cc(C(=O)O)nn1-c1c(Cl)cc(C(F)(F)F)cc1Cl | 213
4 | CC(=O)C(C)(C)c1nsc2ccc(-n3c(=O)cc(C(F)(F)F)n(C)c3=O)cc12 | 195 to 196
5 | CNC1CN(c2c(F)c(N)c3c(=O)c(C(=O)O)cn(-c4nc(N)c(F)cc4F)c3c2Cl)C1 | 204 to 213
6 | COc1ccc2cccc(C(CCO)CNC(=O)C3CCC3)c2c1 (stereo not drawn) | 113 to 115
7 | Clc1ccc(C=Cc2nc(CNc3ccc(CCCCn4ccnn4)cc3)co2)cc1 | 120 to 122
8 | CN1NC=CC1c1ccc(C(=O)N2Cc3cccn3Cc3ccccc32)c(Cl)c1 (stereo not drawn) | 78 to 79
9 | CCC(=O)Nc1c(-n2cncn2)cnn1-c1c(Cl)cc(C(F)(F)F)cc1Cl | 167 to 169
10 | CC(C)(C)c1cc(C=C2CCN(CCO)C2=O)cc(C(C)(C)C)c1O | 191
11 | O=c1[nH]c2cc(Cl)ccc2n1C1CCN(CC2=NOC(c3ccc(F)cc3)C2)CC1 (single isomer, unassigned; (-)) | 143 to 145
12 | O=S(=O)(NCc1ccnnc1)c1cc(Br)cs1 | 120 to 122
13 | Brc1cccc2[nH]c(-c3ccccc3)c(CCN3CCCCC3)c12 | > 230
14 | O[C@H](COc1cccc2[nH]ccc12)CN1CCC(c2c[nH]c3c(Cl)c(Cl)ccc23)CC1 | 192 to 197
15 | O=S(=O)(N[C@H]1CC[C@H](CCN2CCC(c3cccc4c3CCO4)CC2)CC1)c1ccc(F)cc1 | 134
16 | Cc1cc(C)c2cccc(OCc3c(Cl)ccc(S(=O)(=O)N4CCC[C@H]4C(=O)N4CCN(C(=O)c5ccc(C(N)=NO)cn5)CC4)c3Cl)c2n1 | 148 to 150
17 | CCCN1C(=O)N2C[C@@H](Cc3ccccc3)N=C2c2[nH]c(C3(O)CCCC3)nc21 | 110 to 115
18 | N#Cc1c[nH]c2cccc(O)c12 | 206 to 207
19 | CCc1ccc(Nc2nc3cc(NC(=O)c4cccc(CCl)c4)ccc3o2)cc1 | 194 to 195
20 | CNc1nn2c(N)nnc2c2c1CCCC2 | 295 to 297
21 | COc1cc2ncnc(N3CCC(O)(CCI)CC3)c2cc1OC | 179 to 181
22 | Cc1nnc2ccc(-c3cccc(N(C)C(=O)C4CC4)c3)nn12 | 169 to 172
23 | Cc1c(F)c(Br)cc2c1c(=O)c(C(=O)O)cn2C1CC1 | 237 to 239
24 | CC(=O)c1c(C)c(NC(=O)CC(C)(C)C)c(C)c2c1S(=O)CC2c1ccc(C(C)C)cc1 (stereo not drawn) | 214 to 216

Row | SMILES | melting point [°C]
25 | CSc1csc(NC(=O)c2ccc(OC(C)=O)cc2)n1 | 186 to 189
26 | CCN1c2cc(C)c(C)cc2N(C)C(=O)c2cccnc21 | 140 to 144
27 | COc1ccc(C(=O)Nc2cccnc2)cc1Nc1cccc(C(F)(F)F)c1 | 184 to 185
28 | Cc1c(Cc2cc(=O)n(-c3cccc(C(F)(F)F)c3)[nH]2)c2cc(Cl)ccc2n1C(=O)c1ccc(Cl)cc1 | 81 to 83
29 | CCn1c(=O)c2c(nc(C=Cc3cccc(C(=O)O)c3)n2C)n(CC)c1=O | 260 to 262
30 | CCC12CCC3C4CCC(=O)C=C4CCC3C1=CC=C2c1ccccc1 (stereo not drawn) | 191
31 | CSc1ccc(C(=O)CC(=O)C2CC2)c2c1OC(F)(F)O2 | 46 to 47
32 | CC(C)OCC1(C(C)(F)F)c2cc(C#N)ccc2Nc2ncc(Cl)cc21 (stereo not drawn) | 79 to 81
33 | CCCCCCCCCCNC(=O)C=C(c1ccccc1)c1ccc([N+](=O)[O-])cc1 | 91 to 93
34 | CCC(O)(c1ccc(OCc2ccccc2)cc1)c1cccc(Cl)c1 (stereo not drawn) | 52 to 53
35 | Cc1ccccc1CC1CCN(C(=O)C(=O)Nc2ccc3c(c2)CC(=O)N3)CC1 | 211 to 213
36 | O=[N+]([O-])c1cc([N+](=O)[O-])c(Nc2ccc(Cl)c3ccccc23)c(C(F)(F)F)c1 | 197 to 198
37 | CNC(=O)c1cccc(NC(=O)Cc2c(O)ccc3ccccc23)c1 | 229 to 230
38 | O=[N+]([O-])c1cc(Cc2ccc[nH]2)cc(O)c1O | 115 to 118
39 | CC(=O)Oc1ccc(C2CCC(=O)CC2)cc1 | 104 to 106
40 | Cc1ncc(Cn2c(CC3CCN(CCc4c(C)nc5sccn5c4=O)CC3)nc3ccccc32)o1 | 174
41 | CC1(C)Oc2ccc([N+](=O)[O-])cc2C(n2ccccc2=O)C1(O)CNC(=O)C(F)(F)F (stereo not drawn) | 158
42 | OC(CCCl)COc1ccc(F)cc1 (stereo not drawn) | 53 to 55
43 | CCCCc1nn(-c2ccccc2C(F)(F)F)c(=O)n1Cc1ccc(-c2ccccc2S(=O)(=O)NC(=O)c2ccccc2Cl)cc1F | 88 to 90
44 | NC(=O)c1ccccc1-n1nnc2cccnc21 | > 340
45 | CCc1noc(-c2cn(-c3cccc(Cl)c3)cn2)n1 | 134 to 135
46 | O=C1NC(=O)C(c2ccc(Oc3ccccc3)cc2)C(=O)N1 | > 240
47 | C#CCN(CCC12CC3CC(CC(C3)C1)C2)C(=O)NCCCc1ccncc1 | 152 to 154
48 | O=C(CCCCCN1CCN(c2cccc(C(F)(F)F)c2)CC1)N1Cc2ccc(C(=O)N3CCCCC3)cc2C1 | 91
